Where two headings read alike, the source gives them in different places. Starred links: 1 amine or outer side, 2 acyl side, 3 side chain; linkers in the order of their positions; H or OH if unused. Positions of bridges follow the written chain, without caps; N, C: chain ends. Non-standard residues stand in square brackets, D forms with d. Residues, ends and D or L forms follow the SMILES beside them. *: point of attachment. Orn(4R-OH,5R-OCH2CH2NMe3+) = C[N+](C)(C)CCO[C@@H](N[*:3])[C@H](O)C[C@H](N[*:1])C(=O)[*:2]; pTerphenylCO(4''-OnC5H11) = CCCCCOc1ccc(-c2ccc(-c3ccc(C(=O)*)cc3)cc2)cc1; hTyr(3S-OH,4S-OH) = N[C@H](C(=O)O)[C@H](O)[C@@H](O)c1ccc(O)cc1; Pro(3S-OH,4S-Me) = C[C@H]1CN[C@H](C(=O)O)[C@H]1O; Hyp = O=C(O)[C@@H]1C[C@@H](O)CN1
Assays:
[1] = tested on: C. glabrata vaginal isolates; test: Susceptibility testing of VVC clinical isolates at pH 7 and 4 (CLSI M27-A3); format: cell-based, Candida glabrata; conditions: for MIC90: Nakaseomyces glabratus
[2] = tested on: C. krusei ATCC 6258; test: microbe, parasite or virus in culture; format: cell-based, Candida krusei; conditions: Pichia kudriavzevii
[3] = tested on: Candida glabrata; test: microbe, parasite or virus in culture; format: cell-based
[4] = tested on: C. albicans vaginal isolates; test: Susceptibility testing of VVC clinical isolates at pH 7 and 4 (CLSI M27-A3); format: cell-based, Candida albicans; conditions: for Number of isolates at MIC 0.06 μg/mL / Number of isolates at MIC 0.125 μg/mL / Number of isolates at MIC 0.25 μg/mL / Number of isolates at MIC 0.5 μg/mL / Number of isolates at MIC 0.03 μg/mL / Number of isolates at MIC […] / Number of isolates at MIC 1 μg/mL: 60 VVC isolates; for MIC90 / MIC: Candida albicans

SMILES: CCCCCOc1ccc(-c2ccc(-c3ccc(C(=O)N[C@H]4C[C@@H](O)[C@@H](OCC[N+](C)(C)C)NC(=O)[C@@H]5[C@@H](O)[C@@H](C)CN5C(=O)[C@H]([C@@H](C)O)NC(=O)[C@H]([C@H](O)[C@@H](O)c5ccc(O)cc5)NC(=O)[C@@H]5C[C@@H](O)CN5C(=O)[C@H]([C@@H](C)O)NC4=O)cc3)cc2)cc1 [Compound 1] ({pTerphenylCO(4''-OnC5H11)}-[Orn(4R-OH,5R-OCH2CH2NMe3+)]T[Hyp][hTyr(3S-OH,4S-OH)]T[Pro(3S-OH,4S-Me)]; lactam 1-C)
- Number of isolates at MIC 0.125 μg/mL ([1]; 21 VVC isolates, 24 h, pH 4): 2
- Number of isolates at MIC 0.25 μg/mL ([1]; 21 VVC isolates, 24 h, pH 4): 3
- Number of isolates at MIC 0.5 μg/mL ([1]; 21 VVC isolates, 24 h, pH 4): 15
- Number of isolates at MIC 2 μg/mL ([1]; 21 VVC isolates, 24 h, pH 4): 1
- Number of isolates at MIC 0.06 μg/mL ([1]; 21 VVC isolates, 24 h, pH 7): 3
- Number of isolates at MIC 0.125 μg/mL ([1]; 21 VVC isolates, 24 h, pH 7): 17
- Number of isolates at MIC 2 μg/mL ([1]; 21 VVC isolates, 24 h, pH 7): 1
- Number of isolates at MIC 0.25 μg/mL ([1]; 21 VVC isolates, 48 h, pH 4): 2
- Number of isolates at MIC 0.5 μg/mL ([1]; 21 VVC isolates, 48 h, pH 4): 8
- Number of isolates at MIC 1 μg/mL ([1]; 21 VVC isolates, 48 h, pH 4): 9
- Number of isolates at MIC 2 μg/mL ([1]; 21 VVC isolates, 48 h, pH 4): 2
- Number of isolates at MIC 0.06 μg/mL ([1]; 21 VVC isolates, 48 h, pH 7): 2
- Number of isolates at MIC 0.125 μg/mL ([1]; 21 VVC isolates, 48 h, pH 7): 16
- Number of isolates at MIC 0.25 μg/mL ([1]; 21 VVC isolates, 48 h, pH 7): 1
- Number of isolates at MIC 0.5 μg/mL ([1]; 21 VVC isolates, 48 h, pH 7): 1
- Number of isolates at MIC 2 μg/mL ([1]; 21 VVC isolates, 48 h, pH 7): 1
- MIC90 ([1]; 24 h, pH 4): 0.5 µg/mL
- MIC90 ([1]; 24 h, pH 7): 0.125 µg/mL
- MIC90 ([1]; 48 h, pH 4): 1 µg/mL
- MIC90 ([1]; 48 h, pH 7): 0.25 µg/mL
- MIC ([2]; ATCC6258): 0.125 µg/mL
- MIC ([2]; ATCC6258, read-out: MIC P20): 0.125 µg/mL
- Cumulative % of isolates inhibited at MIC 0.015 μg/mL [3]: (3.0) %
- Cumulative % of isolates inhibited at MIC 0.03 μg/mL [3]: (62.0) %
- Cumulative % of isolates inhibited at MIC 0.06 μg/mL [3]: (91.0) %
- Cumulative % of isolates inhibited at MIC 0.25 μg/mL [3]: (95.0) %
- Cumulative % of isolates inhibited at MIC 0.5 μg/mL [3]: (95.0) %
- Cumulative % of isolates inhibited at MIC 1 μg/mL [3]: (96.0) %
- Cumulative % of isolates inhibited at MIC 2 μg/mL [3]: (99.0) %
- Cumulative % of isolates inhibited at MIC 4 μg/mL [3]: (100.0) %
- Number of isolates inhibited at MIC 0.015 μg/mL [3]: 3
- Number of isolates inhibited at MIC 0.03 μg/mL [3]: 59
- Number of isolates inhibited at MIC 0.06 μg/mL [3]: 29
- Number of isolates inhibited at MIC 0.12 μg/mL [3]: 4
- Number of isolates inhibited at MIC 0.25 μg/mL [3]: 0
- Number of isolates inhibited at MIC 0.5 μg/mL [3]: 0
- Number of isolates inhibited at MIC 1 μg/mL [3]: 1
- Number of isolates inhibited at MIC 2 μg/mL [3]: 3
- Number of isolates inhibited at MIC 4 μg/mL [3]: 1
- MIC50 ([3]; Nakaseomyces glabratus, read-out: MIC50): 0.03 µg/mL
- MIC90 ([3]; Nakaseomyces glabratus, read-out: MIC90): 0.06 µg/mL
- MIC ([3]; Nakaseomyces glabratus, read-out: MIC results): 2 to 4 µg/mL
- Number of isolates at MIC 0.06 μg/mL ([4]; 24 h, pH 4): 1
- Number of isolates at MIC 0.125 μg/mL ([4]; 24 h, pH 4): 33
- Number of isolates at MIC 0.25 μg/mL ([4]; 24 h, pH 4): 23
- Number of isolates at MIC 0.5 μg/mL ([4]; 24 h, pH 4): 3
- Number of isolates at MIC 0.03 μg/mL ([4]; 24 h, pH 7): 43
- Number of isolates at MIC 0.06 μg/mL ([4]; 24 h, pH 7): 10
- Number of isolates at MIC 0.125 μg/mL ([4]; 24 h, pH 7): 2
- Number of isolates at MIC […] ([4]; 24 h, pH 7): 5
- Number of isolates at MIC 0.125 μg/mL ([4]; 48 h, pH 4): 6
- Number of isolates at MIC 0.25 μg/mL ([4]; 48 h, pH 4): 16
- Number of isolates at MIC 0.5 μg/mL ([4]; 48 h, pH 4): 34
- Number of isolates at MIC 1 μg/mL ([4]; 48 h, pH 4): 4
- Number of isolates at MIC 0.03 μg/mL ([4]; 48 h, pH 7): 29
- Number of isolates at MIC 0.06 μg/mL ([4]; 48 h, pH 7): 16
- Number of isolates at MIC 0.125 μg/mL ([4]; 48 h, pH 7): 9
- Number of isolates at MIC 0.25 μg/mL ([4]; 48 h, pH 7): 1
- Number of isolates at MIC 0.5 μg/mL ([4]; 48 h, pH 7): 1
- Number of isolates at MIC 1 μg/mL ([4]; 48 h, pH 7): 2
- Number of isolates at MIC […] ([4]; 48 h, pH 7): 2
- MIC90 ([4]; 48 h, pH 4): 0.5 µg/mL
- MIC ([4]; 48 h, pH 4, fluconazole-resistant isolate 1, pH 4, 48 h, read-out: MIC): 0.5 µg/mL
- MIC ([4]; 48 h, pH 4, fluconazole-resistant isolate 2, pH 4): 0.125 µg/mL
- MIC ([4]; 48 h, pH 4, fluconazole-resistant isolate 3, pH 4, 48 h, read-out: MIC): 0.5 µg/mL
- MIC ([4]; 48 h, pH 4, fluconazole-resistant isolate 4, pH 4, 48 h, read-out: MIC): 0.25 µg/mL
- MIC ([4]; 48 h, pH 4, fluconazole-resistant isolate 6, pH 4, 48 h, read-out: MIC): 0.5 µg/mL
- MIC ([4]; 48 h, pH 4, fluconazole-resistant isolate 7, pH 4, 48 h, read-out: MIC): 0.5 µg/mL
- MIC ([4]; 48 h, pH 4, fluconazole-resistant isolate 9, pH 4, 48 h, read-out: MIC): 1 µg/mL
- MIC90 ([4]; 48 h, pH 7): 0.125 µg/mL
- MIC ([4]; 48 h, pH 7, fluconazole-resistant isolate 1, pH 7, 48 h, read-out: MIC): 0.03 µg/mL
